# Source: patent US11578055B2, “Triazacyclododecansulfonamide (“TCD”)-based protein secretion inhibitors” (KEZAR LIFE SCIENCES, priority 2018, dated 2023)
# Like-named read-outs stand apart in the source and are kept apart here.
# How the values were obtained:
# [1] = In Vitro Microsome Stability Assay (mouse); format: in vitro ADME
# Outline: (§1)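 Test article, added from a 0.25 mM DMSO stock, was incubated with liver microsomes (20 mg/mL stock) in 0.1 M potassium phosphate at 37° C, with the reaction started by NADPH. Samples were quenched with acetonitrile containing internal standard at 0 and 30 min and analysed by LC-MS/MS. Values are % remaining at 30 min versus 0 min, using IS-normalised AUC ratios.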
# [2] = In Vitro Microsome Stability Assay (human); format: in vitro ADME
# Outline: as §1
# [3] = In Vitro Microsome Stability Assay (monkey); format: in vitro ADME
# Outline: as §1
# [4] = system: PD1 signal sequence plus 10 amino acids fused to Gaussia Luciferase (PD1-ss+10aa/Gaussia Luciferase); experiment: Dox Induced PD1-ss-Gluc Assay; format: cell-based; settings: 24 hr, read-out: 24 hr Dox Inducible PD1ssGluc 293FRT/TO: Mean IC50
# Outline: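 Stable Flp-In 293 T-REx line expressing the fusion under tetracycline-inducible control, plated the day before assay. Compound dilutions added with doxycycline and incubated at 37 °C, 5% CO2; unspecified stereocentres mean data refer to stereoisomer mixtures.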
# [5] = In Vitro Microsome Stability Assay (rat); format: in vitro ADME
# Outline: as §1
# [6] = system: multiple myeloma cell line U266B1; experiment: U266 Cell Viability Assay; format: cell-based, human; settings: Homo sapiens, U-266, 48 hr
# Outline: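 U266B1 myeloma cells in RPMI 1640 with 10% FBS were treated with compound dilutions for 48 h at 37° C, 5% CO2. Viability was read as CellTiter-Glo luminescence. Data for structures drawn without stereochemistry refer to stereoisomer mixtures.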
# [7] = system: full length TNFα (amino acids 1-233) fused to Gaussia Luciferase; experiment: Dox Induced TNFα-FL-Gluc Assay; format: cell-based; settings: 24 hr, read-out: 24 hr Dox Inducible TNFaFLGluc 293FRT/TO: Mean IC50
# Outline: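 Stable Flp-In 293 T-REx line expressing doxycycline-inducible full-length TNFα fused to Gaussia luciferase; cells plated the day before, then treated with compound dilutions in doxycycline-containing medium at 37° C, 5% CO2. Unspecified stereocentres mean stereoisomer mixtures were tested.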
# [8] = system: multiple myeloma cell line NCl-H929; experiment: H929 Cell Viability Assay; format: cell-based, human; settings: Homo sapiens, NCI-H929, 48 h
# Outline: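 NCI-H929 myeloma cells in RPMI 1640 with 10% FBS were treated with compound dilutions for 48 h at 37 °C, and viability was then read by CellTiter-Glo luminescence. Compounds drawn without stereochemistry were tested as stereoisomer mixtures.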
# [9] = U266, read-out: 48 hr U266 Viability Celltiter-Glo: Mean EC50
# [10] = H929, read-out: 48 hr H929 Viability Celltiter-Glo: Mean EC50
# [11] = mouse liver microsomes, 30 min w/ NADPH
# [12] = human liver microsomes, 30 min w/ NADPH
# [13] = monkey liver microsomes, 30 min w/ NADPH
# [14] = rat liver microsomes, 30 min w/ NADPH
Compound,"Liver Microsome Stability-% Left after 30 min w/ NADPH (%) Mouse ([1]; mouse, 30 min, NADPH) [%]","Liver Microsome Stability-% Left after 30 min w/ NADPH (%) Human ([2]; human, 30 min, NADPH) [%]","Liver Microsome Stability-% Left after 30 min w/ NADPH (%) Monkey ([3]; monkey, 30 min, NADPH) [%]",IC50 ([4]; 293FRT/TO) [µM],"Liver Microsome Stability-% Left after 30 min w/ NADPH (%) Rat ([5]; rat, 30 min, NADPH) [%]","EC50 [6, 9] [µM]",IC50 ([7]; 293FRT/TO) [µM],"EC50 [8, 10] [µM]","Liver Microsome Stability-% Left after 30 min w/ NADPH (%) Mouse [1, 11] [%]","Liver Microsome Stability-% Left after 30 min w/ NADPH (%) Human [2, 12] [%]","Liver Microsome Stability-% Left after 30 min w/ NADPH (%) Monkey [3, 13] [%]","IC50 ([4]; Dox inducible, 293FRT/TO cells) [µM]","Liver Microsome Stability-% Left after 30 min w/ NADPH (%) Rat [5, 14] [%]","EC50 ([6]; U266, Celltiter-Glo) [µM]","IC50 ([7]; Dox inducible, 293FRT/TO cells) [µM]","EC50 ([8]; H929, Celltiter-Glo) [µM]"
"C=C1CN(S(=O)(=O)c2ccc(N(C)C)cc2)CCCN(CC2CCCCC2)CCCN(S(=O)(=O)N2CCC(OC(C)C)CC2)C1 [A66, 4-{[9-(cyclohexylmethyl)-3-methylidene-5-{[4-(propan-2-yloxy)piperidin-1-yl]sulfonyl}-1,5,9-triazacyclododecan-1-yl]sulfonyl}-N,N-dimethylaniline]",0.02,0.13,0.35,0.188,0.39,> 25,3.5,9.21,–,–,–,–,–,–,–,–
"C=C1CN(S(=O)(=O)c2ccc(N(C)C)cc2)CCCN(CC2CCCCC2)CCCN(S(=O)(=O)N2CCN(c3cccc(Cl)c3)CC2)C1 [A84, 4-[(5-{[4-(3-chlorophenyl)piperazin-1-yl]sulfonyl}-9-(cyclohexylmethyl)-3-methylidene-1,5,9-triazacyclododecan-1-yl)sulfonyl]-N,N-dimethylaniline]",68.3,60.6,65.8,0.176,67.3,> 25,> 25,> 25,–,–,–,–,–,–,–,–
"C=C1CN(S(=O)(=O)c2ccc(N(C)C)cc2)CCCN(CC2CCCCC2)CCCN(S(=O)(=O)N2CCc3cccc(Cl)c3C2)C1 [A51, 4-({5-[(8-chloro-1,2,3,4-tetrahydroisoquinolin-2-yl)sulfonyl]-9-(cyclohexylmethyl)-3-methylidene-1,5,9-triazacyclododecan-1-yl}sulfonyl)-N,N-dimethylaniline]",28,26.7,23.6,0.0614,34.7,> 25,3.07,6.15,–,–,–,–,–,–,–,–
CN(C)c1ccc(S(=O)(=O)N2CCCCN(S(=O)(=O)N3CCC(c4ccccc4)CC3)CCCN(CC3CCCCC3)CCC2)cc1 [B5],–,–,–,–,–,–,–,–,0.24,0.54,0.21,1.5,7.08,> 25,> 25,> 25
"C=C1CN(S(=O)(=O)c2ccc(C)cc2)CCCN(CC2CCOCC2)CCCN(S(=O)(=O)c2ccc(N(C)C)cc2)C1 [A9, N,N-dimethyl-4-{[5-(4-methylbenzenesulfonyl)-3-methylidene-9-[(oxan-4-yl)methyl]-1,5,9-triazacyclododecan-1-yl]sulfonyl}aniline]",0.34,0.09,0.66,1.11,0.14,> 25,> 25,> 25,–,–,–,–,–,–,–,–
"C=C1CN(S(=O)(=O)c2ccc(N(C)C)cc2)CCCN(CC2CCCCC2)CCCN(S(=O)(=O)N2CCc3nc(Cl)ccc3C2)C1 [A82, 4-({5-[(2-chloro-5,6,7,8-tetrahydro-1,6-naphthyridin-6-yl)sulfonyl]-9-(cyclohexylmethyl)-3-methylidene-1,5,9-triazacyclododecan-1-yl}sulfonyl)-N,N-dimethylaniline]",0.08,0.3,0.23,0.0305,0.16,> 25,1.55,2.3,–,–,–,–,–,–,–,–
"COc1ccccc1S(=O)(=O)N1CCCN(CC2CCCCC2)CCCN(S(=O)(=O)N2CCCCC2)CC2(CC2)C1 [A33, 9-(cyclohexylmethyl)-5-(2-methoxybenzenesulfonyl)-13-(piperidine-1-sulfonyl)-5,9,13-triazaspiro[2.11]tetradecane]",0.08,0.05,0.07,> 25,0.13,> 25,> 25,> 25,–,–,–,–,–,–,–,–
"C=C1CN(S(=O)(=O)c2ccc(C)cc2)CCCN(CC2CCCCC2)CC(C)CN(S(=O)(=O)c2ccc(C)cc2)C1 (centres unmarked) [B2, 1-(cyclohexylmethyl)-3-methyl-5,9-bis(4-methylbenzenesulfonyl)-7-methylidene-1,5,9-triazacyclododecane]",–,–,–,–,–,–,–,–,0.55,0.35,0.23,1.72,1.46,> 25,> 25,> 25
"CC1CCCCN1S(=O)(=O)N1CCCN(CC2CCCCC2)CCCN(S(=O)(=O)c2ccc(N(C)C)cc2)CC2(CC2)C1 (centres unmarked) [A20, 4-{[9-(cyclohexylmethyl)-13-[(2-methylpiperidin-1-yl)sulfonyl]-5,9,13-triazaspiro[2.11]tetradecan-5-yl]sulfonyl}-N,N-dimethylaniline]",0.07,0.05,0.06,0.207,0.19,> 25,> 25,12.8,–,–,–,–,–,–,–,–
"C=C1CN(S(=O)(=O)c2ccc(N(C)C)cc2)CCCN(CC2CCCCC2)CCCN(S(=O)(=O)N2CCN(c3ccc(Cl)cc3)CC2)C1 [A85, 4-[(5-{[4-(4-chlorophenyl)piperazin-1-yl]sulfonyl}-9-(cyclohexylmethyl)-3-methylidene-1,5,9-triazacyclododecan-1-yl)sulfonyl]-N,N-dimethylaniline]",52.2,25.6,42.9,0.0875,64.9,> 25,> 25,> 25,–,–,–,–,–,–,–,–
